pEC50: −log10 of the molar value. Converted amounts (≈) assume the structure as drawn.
Assays:
Cathepsin B = biological target: T1, Cathepsin B (Homo sapiens, UniProt P07858); experiment: Cathepsin B Inhibitor Screening Assay Kit (fluorescence); assay type: biochemical; settings: Cathepsin B 0.4 ng/group, 50 μL reaction; read-out: half maximal effective concentration (EC50) against Cathepsin B protease activity
T1 construct: purchased BPS BIOSCIENCE 79590
Protocol: In the biochemical test, the Cathepsin B Fluorescence Assay Kit (Cathepsin B Inhibitor Screening Assay Kit, BPS BIOSCIENCE, 79590) was used in the test method. According to the manufacturer's manual, the inhibition activity was measured through continuous kinetic analysis, the samples containing Cathepsin B were reacted with a fluorescent substrate in the mixing, and the measured fluorescence (λex=360 nm, λem=460 nm) readings were used. The E64 protease inhibitor was used as a positive control. The experiment was conducted in a 50 μL reaction system, with a single reaction dose of Cathepsin B at 0.4 ng/group, the E64 protease inhibitor were used as a positive control. The inhibitory impact of various concentrations of Anisomelic acid (0.5, 1, 2.5, 5, 10, 20, and 30 μM) against Cathepsin B protease activity was examined. The significant inhibition of Anisomelic acid against Cathepsin B protease activity was found in a dose-dependent manner.

Cathepsin L = Cathepsin L (Homo sapiens, UniProt P07711); experiment: Cathepsin L Inhibitor Screening Assay Kit (fluorescence); assay type: biochemical; settings: Cathepsin L 0.4 ng/group, 50 μL reaction; read-out: half maximal effective concentration (EC50) against Cathepsin L protease activity
Protocol: The Cathepsin L Fluorescence Assay Kit (Cathepsin L Inhibitor Screening Assay Kit, BPS BIOSCIENCE, 79591) was used in the biochemical test method. According to the manufacturer's manual, the inhibition activity was measured through continuous kinetic analysis, the samples containing Cathepsin L were reacted with a fluorescent substrate in mixing, and the measured fluorescence (λex=360 nm, λem=460 nm) readings were used. The E64 protease inhibitor was used as a positive control. The experiment was conducted in a 50 μL reaction system, with a single reaction dose of Cathepsin L at 0.4 ng/group, the E64 was used as the positive control of inhibition. The inhibitory impact of various concentrations of Anisomelic acid (0.5, 1, 2.5, 5, 10, 20, and 30 μM) against Cathepsin L protease activity was examined. As shown in the right graph of FIG. 5B, the significant inhibition of Anisomelic acid against Cathepsin L protease activity was found in a dose-dependent manner.

TMPRSS2 = biological target: T2, TMPRSS2 (Homo sapiens, UniProt O15393); experiment: TMPRSS2 Fluorogenic Assay Kit; assay type: biochemical; settings: TMPRSS2 150 ng/group, 50 μL reaction; read-out: half maximal effective concentration (EC50) against TMPRSS2 protease activity
T2 construct: purchased BPS BIOSCIENCE 78083
Protocol: In the biochemical experiments, TMPRSS2 Fluorescence Assay Kit (TMPRSS2 Fluorogenic Assay Kit, BPS BIOSCIENCE, 78083) was used in the test method. Inhibitory activity was measured by sequential kinetic analysis according to the manufacturer's manual, the inhibition activity was measured by using continuous kinetic analysis, the samples containing TMPRSS2 were reacted with a fluorescent substrate in a mixing, and a fluorescence (λex=383 nm, λem=455 nm) readings were used. Camostat protease inhibitor was used as a positive control. The experiment was performed in a 50 μL reaction system, the single reaction dose of TMPRSS2 was 150 ng/group, and 10 μM Camostat protease inhibitor was used as a positive control. The effect of Anisomelic acid on the inhibition of TMPRSS2 protease activity was examined by tested various concentrations of Anisomelic acid (0.5, 1, 2.5, 5, 10, 20 and 30 μM). A significant inhibition of Anisomelic acid against TMPRSS2 protease activity was found in a dose-dependent manner.

[1] = biological target: T3, SARS-CoV-2 main protease (Mpro) (Severe acute respiratory syndrome coronavirus 2, UniProt P0DTD1); assay type: biochemical; settings: read-out: half maximal effective concentration (EC50) against Mpro activity
T3 construct: a recombinant 2019-nCoV 3CL protease protein (Elabscience bio Inc) was used; purchased Elabscience bio Inc

[2] = tested on: SARS-CoV-2 pseudovirus Wuhan D614; experiment: microbe, parasite or virus in culture; assay type: cell-based
[3] = tested on: SARS-CoV-2 pseudovirus South Africa B.1.351; experiment: microbe, parasite or virus in culture; assay type: cell-based
[4] = tested on: SARS-CoV-2 pseudovirus Brazil P.1; experiment: microbe, parasite or virus in culture; assay type: cell-based
[5] = tested on: SARS-CoV-2 pseudovirus India B.1.617.1; experiment: microbe, parasite or virus in culture; assay type: cell-based
[6] = tested on: SARS-CoV-2 pseudovirus Uganda A23.1; experiment: microbe, parasite or virus in culture; assay type: cell-based
[7] = tested on: SARS-CoV-2 pseudovirus Nigeria B.1.525; experiment: microbe, parasite or virus in culture; assay type: cell-based
[8] = tested on: SARS-CoV-2 pseudovirus California B.1.429; experiment: microbe, parasite or virus in culture; assay type: cell-based
[9] = tested on: SARS-CoV-2 pseudovirus New York B.1.526; experiment: microbe, parasite or virus in culture; assay type: cell-based
SARS-CoV-2 = settings: mouse, in vivo
[10] = Severe acute respiratory syndrome-related coronavirus, Huh-7, read-out: IC50 inhibiting infection

T2 sequence (O15393 whole entry): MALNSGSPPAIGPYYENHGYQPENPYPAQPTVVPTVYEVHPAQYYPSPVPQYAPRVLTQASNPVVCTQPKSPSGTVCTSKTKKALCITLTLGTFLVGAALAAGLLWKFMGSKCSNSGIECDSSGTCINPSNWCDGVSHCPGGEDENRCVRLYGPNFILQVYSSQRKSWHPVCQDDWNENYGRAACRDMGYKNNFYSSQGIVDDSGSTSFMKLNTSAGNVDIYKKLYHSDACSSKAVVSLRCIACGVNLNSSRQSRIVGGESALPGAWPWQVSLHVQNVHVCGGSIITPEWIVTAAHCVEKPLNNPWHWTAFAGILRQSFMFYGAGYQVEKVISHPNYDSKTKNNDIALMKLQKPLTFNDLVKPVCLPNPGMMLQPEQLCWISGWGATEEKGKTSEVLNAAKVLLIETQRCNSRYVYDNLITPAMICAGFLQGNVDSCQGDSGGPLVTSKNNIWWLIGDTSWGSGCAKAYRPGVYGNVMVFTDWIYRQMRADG
Sequence of Cathepsin L (P07711 114-333): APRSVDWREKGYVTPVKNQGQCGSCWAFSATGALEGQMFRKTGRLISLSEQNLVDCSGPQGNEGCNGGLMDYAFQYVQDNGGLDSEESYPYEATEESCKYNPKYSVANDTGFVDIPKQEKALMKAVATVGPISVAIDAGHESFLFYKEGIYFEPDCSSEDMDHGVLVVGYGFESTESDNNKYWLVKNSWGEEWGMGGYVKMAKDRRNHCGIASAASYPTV

SMILES | IC50 inhibiting infection [2] [µg/mL] | IC50 inhibiting infection [3] [µg/mL] | IC50 inhibiting infection [4] [µg/mL] | IC50 inhibiting infection [5] [µg/mL] | IC50 inhibiting infection [6] [µg/mL] | IC50 inhibiting infection [7] [µg/mL] | IC50 inhibiting infection [8] [µg/mL] | IC50 inhibiting infection [9] [µg/mL] | changes in body weight of the mice (SARS-CoV-2) | also measured
C=C1C(=O)OC2/C=C(/C)CC/C=C(\C(=O)O)CC/C=C(\C)CCC12 (centres unmarked) [Anisomelic acid] | 3.50 (≈ 10.6 µM) | 27.55 (≈ 83.4 µM) | 0.12 (≈ 0.363 µM) | 10.09 (≈ 30.5 µM) | 15.53 (≈ 47 µM) | 14.36 (≈ 43.5 µM) | 8.47 (≈ 25.6 µM) | 8.86 (≈ 26.8 µM) | basically similar | pEC50 (Cathepsin B): 5.37; pEC50 (Cathepsin L): 5.43; pEC50 (TMPRSS2): 5.19; pEC50 [1]: 5.01; changes in the titers of coronavirus infection in the lungs of mice (SARS-CoV-2): better prevention and control effects
C=C1C(=O)O[C@@H]2/C=C(\C)C[C@H]3C=C(CC/C=C(\C)CC[C@@H]12)C(=O)O3 [Ovatodiolide] | 4.08 (≈ 12.4 µM) | 15.42 (≈ 47 µM) | 7.00 (≈ 21.3 µM) | 15.27 (≈ 46.5 µM) | 6.72 (≈ 20.5 µM) | 8.24 (≈ 25.1 µM) | 12.09 (≈ 36.8 µM) | 11.35 (≈ 34.6 µM) | basically similar | –
CCC(CC)COC(=O)[C@H](C)N[P@](=O)(OC[C@H]1O[C@@](C#N)(c2ccc3c(N)ncnn23)[C@H](O)[C@@H]1O)Oc1ccccc1 [Remdesivir, reference compound] | – | – | – | – | – | – | – | – | basically similar | IC50 [2, 10]: 2.96 µg/mL (≈ 4.91 µM); IC50 [3, 10]: 27.2 µg/mL (≈ 45.2 µM); IC50 [4, 10]: 13.8 µg/mL (≈ 22.8 µM); IC50 [5, 10]: 11.9 µg/mL (≈ 19.8 µM); IC50 [6, 10]: 7.63 µg/mL (≈ 12.7 µM); IC50 [7, 10]: 10.3 µg/mL (≈ 17.1 µM); IC50 [8, 10]: 15.9 µg/mL (≈ 26.4 µM); IC50 [9, 10]: 15 µg/mL (≈ 24.9 µM)

Source: US20240408055A1 (priority 2021, published 2024)
